Test system: HBV rcDNA
Experiment: HepDE19 assay with bDNA quantitation of HBV rcDNA
Type: cell-based, hepatitis B virus
Settings: HepDE19 assay, inhibition of formation of rcDNA; read-out: DE-19bDNA EC50
How it was run: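 Compounds, top concentration 25 μM in 8-point duplicate series, were applied to Tet-free HepDE19 cultures for 7 days. Branched-DNA quantitation of HBV rcDNA against untreated wells gave EC50 and EC90 by 4-parameter fit. Viability (CC50) came from ATP luminescence on parallel plates incubated 4 days.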

Row | Compound | EC50 [µM]
1 | CC(c1c[nH]c(=O)c2ccccc12)N(Cc1c[nH]nn1)C(=O)Nc1ccc(F)c(Cl)c1 (single isomer, unassigned) [Compound 266, 1-((2H-1,2,3-Triazol-4-yl)methyl)-3-(3-chloro-4-fluorophenyl)-1-(1-(1-oxo-1,2-dihydroisoquinolin-4-yl)ethyl)urea] | 12
2 | CC(C)CN(C(=O)Nc1ccc(F)c(Cl)c1)C(C)c1c[nH]c(=O)c2cnccc12 (single isomer, unassigned) [Compound 254, 3-(3-Chloro-4-fluorophenyl)-1-isobutyl-1-(1-(1-oxo-1,2-dihydro-2,7-naphthyridin-4-yl)ethyl)urea] | 0.016
3 | COCCOCCN(C(=O)Nc1ccc(F)c(Cl)c1)C(C)c1cnc(OC)c2ccccc12 (single isomer, unassigned) [Compound 122, 3-(3-Chloro-4-fluorophenyl)-1-(2-(2-methoxyethoxy)ethyl)-1-(1-(1-methoxyisoquinolin-4-yl)ethyl)urea] | 1.2
4 | CCNc1ncc(C(C)N(C)C(=O)Nc2ccc(F)c(Cl)c2)c2ccccc12 (single isomer, unassigned) [Compound 240, 3-(3-Chloro-4-fluorophenyl)-1-(1-(1-(ethylamino)isoquinolin-4-yl)ethyl)-1-methylurea] | 11.5
5 | CC(c1cn(C)c(=O)c2ccccc12)N(C)C(=O)Nc1ccc(F)c(Cl)c1 (single isomer, unassigned) [Compound 181, 3-(3-Chloro-4-fluorophenyl)-1-methyl-1-(1-(2-methyl-1-oxo-1,2-dihydroisoquinolin-4-yl)ethyl)urea] | 1.8
6 | CC(c1cnc(NCc2nc[nH]n2)c2ccccc12)N(C)C(=O)Nc1ccc(F)c(Cl)c1 (single isomer, unassigned) [Compound 247, 1-(1-(1-(((1H-1,2,4-Triazol-3-yl)methyl)amino)isoquinolin-4-yl)ethyl)-3-(3-chloro-4-fluorophenyl)-1-methylurea] | 0.39
7 | CC(c1c[nH]c(=O)c2ccccc12)N(CCNCC(F)(F)F)C(=O)Nc1ccc(F)c(Cl)c1 (single isomer, unassigned) [Compound 162, 3-(3-Chloro-4-fluorophenyl)-1-(1-(1-oxo-1,2-dihydroisoquinolin-4-yl)ethyl)-1-(2-((2,2,2-trifluoroethyl)amino)ethyl)urea] | 0.58

Same assay, conditions: HepDE19 assay, inhibition of formation of relaxed circular DNA (rcDNA), bDNA quantitation; read-out: DE-19bDNA EC50

Row | Compound | EC50 [µM]
8 | CC(c1c[nH]c(=O)c2ccccc12)N(Cc1cccnc1)C(=O)Nc1ccc(F)c(Cl)c1 (single isomer, unassigned) [Compound 306, 3-(3-Chloro-4-fluorophenyl)-1-(1-(1-oxo-1,2-dihydroisoquinolin-4-yl)ethyl)-1-(pyridin-3-ylmethyl) urea] | 1
9 | CC(c1cn(C)c(=O)c2cc(F)c(F)cc12)N(C)C(=O)Nc1ccc(F)c(Cl)c1 (single isomer, unassigned) [Compound 340, 3-(3-Chloro-4-fluorophenyl)-1-(1-(6,7-difluoro-2-methyl-1-oxo-1,2-dihydroisoquinolin-4-yl)ethyl)-1-methylurea] | 4.6
10 | CC(c1c[nH]c(=O)c2ccccc12)N(Cc1nccs1)C(=O)Nc1ccc(F)c(Cl)c1 (single isomer, unassigned) [Compound 311, 3-(3-Chloro-4-fluorophenyl)-1-(1-(1-oxo-1,2-dihydroisoquinolin-4-yl)ethyl)-1-(thiazol-2-ylmethyl)urea] | 0.066
11 | CC(c1c[nH]c(=O)c2c(F)c(F)ccc12)N(C)C(=O)Nc1ccc(F)c(F)c1 (single isomer, unassigned) [Compound 434, 1-(1-(7,8-Difluoro-1-oxo-1,2-dihydroisoquinolin-4-yl)ethyl)-3-(3,4-difluorophenyl)-1-methylurea] | 3.2
12 | CC(C)CN(C(=O)Nc1ccc(F)c(Cl)c1)C(C)c1cnc(-n2cncn2)c2ccccc12 (single isomer, unassigned) [Compound 345, 1-(1-(1-(1H-1,2,4-triazol-1-yl)isoquinolin-4-yl)ethyl)-3-(3-chloro-4-fluorophenyl)-1-isobutylurea] | 0.0095
13 | CC(c1c[nH]c(=O)c2c(F)c(F)ccc12)N(C)C(=O)Nc1ccc(F)c(C#N)c1 (single isomer, unassigned) [Compound 471, 3-(3-Cyano-4-fluorophenyl)-1-(1-(7,8-difluoro-1-oxo-1,2-dihydroisoquinolin-4-yl)ethyl)-1-methylurea] | 0.02
14 | CC(c1c[nH]c(=O)c2ccccc12)N(Cc1cncs1)C(=O)Nc1ccc(F)c(Cl)c1 (single isomer, unassigned) [Compound 324, 3-(3-Chloro-4-fluorophenyl)-1-(1-(1-oxo-1,2-dihydroisoquinolin-4-yl)ethyl)-1-(thiazol-5-ylmethyl)urea] | 4.5
15 | CC(c1c[nH]c(=O)c2ccc(F)cc12)N(CC(CO)CO)C(=O)Nc1ccc(F)c(Cl)c1 (single isomer, unassigned) [Compound 295, 3-(3-Chloro-4-fluorophenyl)-1-(1-(6-fluoro-1-oxo-1,2-dihydroisoquinolin-4-yl)ethyl)-1-(3-hydroxy-2-(hydroxymethyl)propyl)urea] | 1.9
16 | CC(c1c[nH]c(=O)c2c(F)c(F)ccc12)N(C)C(=O)Nc1ccc(F)c(Cl)c1 (single isomer, unassigned) [Compound 330, 3-(3-Chloro-4-fluorophenyl)-1-(1-(7,8-difluoro-1-oxo-1,2-dihydroisoquinolin-4-yl)ethyl)-1-methylurea] | 0.99

Same assay, conditions: Hepatitis B virus, HepDE19, HepDE19 assay, inhibition of formation of rcDNA; read-out: DE-19bDNA EC50

Row | Compound | EC50 [µM]
17 | CC(c1c[nH]c(=O)c2cc(F)c(F)cc12)N(C)C(=O)Nc1ccc(F)c(Cl)c1 (single isomer, unassigned) [Compound 278, 3-(3-Chloro-4-fluorophenyl)-1-(1-(6,7-difluoro-1-oxo-1,2-dihydroisoquinolin-4-yl)ethyl)-1-methylurea] | 1
18 | CC(c1c[nH]c(=O)c2ccccc12)N(CCCN)C(=O)Nc1ccc(F)c(Cl)c1 (racemic) [Compound 157, 1-(3-aminopropyl)-3-(3-chloro-4-fluorophenyl)-1-(1-(1-oxo-1,2-dihydroisoquinolin-4-yl)ethyl)urea] | 23
19 | CNC(=O)CN(C(=O)Nc1ccc(F)c(Cl)c1)C(C)c1c[nH]c(=O)c2ccccc12 (single isomer, unassigned) [Compound 129, 2-(3-(3-Chloro-4-fluorophenyl)-1-(1-(1-oxo-1,2-dihydroisoquinolin-4-yl)ethyl)ureido)-N-methylacetamide] | 0.53
20 | COc1ncc(C(C)N(C)C(=O)Nc2ccc(F)c(Cl)c2)c2ccccc12 (single isomer, unassigned) [Compound 30, 3-(3-chloro-4-fluorophenyl)-1-(1-(1-methoxyisoquinolin-4-yl)ethyl)-1-methylurea] | 0.56
21 | C[C@H](c1c[nH]c(=O)c2ccccc12)N(C)C(=O)Nc1ccc(F)cc1 [Compound 90, (R)-3-(4-Fluorophenyl)-1-methyl-1-(1-(1-oxo-1,2-dihydroisoquinolin-4-yl)ethyl)urea] | 0.46

Same assay, conditions: Hepatitis B virus, HepDE19, HepDE19 assay, inhibition of formation of relaxed circular DNA (rcDNA), bDNA quantitation; read-out: DE-19bDNA EC50

Row | Compound | EC50 [µM]
22 | CC(c1c[nH]c(=O)c2c(F)cc(F)cc12)N(CCCO)C(=O)Nc1ccc(F)c(Cl)c1 (single isomer, unassigned) [Compound 374, 3-(3-Chloro-4-fluorophenyl)-1-(1-(6,8-difluoro-1-oxo-1,2-dihydroisoquinolin-4-yl)ethyl)-1-(3-hydroxypropyl)urea] | 0.006
23 | CC(C)CN(C(=O)Nc1ccc(F)c(Cl)c1)C(C)c1cnc(-n2ccnn2)c2ccccc12 (racemic) [Compound 355, 1-(1-(1-(1H-1,2,3-Triazol-1-yl)isoquinolin-4-yl)ethyl)-3-(3-chloro-4-fluorophenyl)-1-isobutylurea] | 0.018

Same assay, conditions: Hepatitis B virus, HepDE19, read-out: DE-19bDNA EC50 (μM), HepDE19 assay, inhibition of formation of relaxed circular DNA (rcDNA), bDNA quantitation

Row | Compound | EC50 [µM]
24 | CC(NC(=O)Nc1ccc(F)c(C#N)c1)c1c[nH]c(=O)c2cc(F)c(F)cc12 (stereo not drawn) [Compound 495, 1-(3-Cyano-4-fluorophenyl)-3-(1-(6,7-difluoro-1-oxo-1,2-dihydroisoquinolin-4-yl)ethyl)urea] | 0.33
25 | CC(NC(=O)Nc1ccc(F)c(Cl)c1)c1c[nH]c(=O)c2c(F)c(F)ccc12 (single isomer, unassigned) [Compound 500, 1-(3-Chloro-4-fluorophenyl)-3-(1-(7,8-difluoro-1-oxo-1,2-dihydroisoquinolin-4-yl)ethyl)urea] | 3
26 | CC(c1c[nH]c(=O)c2cc(F)c(F)cc12)N(C)C(=O)N[C@@H](C)c1ccccc1 (single isomer, unassigned) [Compound 475] | 6.1
27 | [2H]C([2H])([2H])N(C(=O)Nc1ccc(F)c(Cl)c1)C(C)c1c[nH]c(=O)c2cc(F)c(F)cc12 (single isomer, unassigned) [Compound 472, 3-(3-Chloro-4-fluorophenyl)-1-(1-(6,7-difluoro-1-oxo-1,2-dihydroisoquinolin-4-yl)ethyl)-1-(methyl-d3)urea] | 0.007
28 | C[C@H](c1c[nH]c(=O)c2ccccc12)N(C)C(=O)Nc1ccc(Cl)cc1 [Compound 293, (R)-3-(4-Chlorophenyl)-1-methyl-1-(1-(1-oxo-1,2-dihydroisoquinolin-4-yl)ethyl)urea] | 0.34

Same assay, conditions: read-out: DE-19bDNA EC50; HepDE19 assay, inhibition of formation of relaxed circular DNA (rcDNA), bDNA quantitation

Row | Compound | EC50 [µM]
29 | CC(c1c[nH]c(=O)c2cc(F)c(F)cc12)N(C)C(=O)Nc1ccc(Cl)cc1 (single isomer, unassigned) [Compound 401, 3-(4-Chlorophenyl)-1-(1-(6,7-difluoro-1-oxo-1,2-dihydroisoquinolin-4-yl)ethyl)-1-methylurea] | 0.09
30 | CC(c1c[nH]c(=O)c2cc(F)c(F)cc12)N(C)C(=O)Nc1ccccc1 (single isomer, unassigned) [Compound 399, 1-(1-(6,7-Difluoro-1-oxo-1,2-dihydroisoquinolin-4-yl)ethyl)-1-methyl-3-phenylurea] | 0.11
